Patent US20090325862A1, “Histone Deacetylase Inhibitors for the Treatment of Neurodegeneration” (priority 2006, published 2009)
Like-named read-outs stand apart in the source and are kept apart here.

What was measured:
HDAC6 = molecular target: T1, HDAC6 (Homo sapiens, UniProt Q9UBN7); assay: cell-free, isoform selective HDAC enzyme assay, HDAC6; assay type: biochemical
T1 sequence (Q9UBN7 1-1215): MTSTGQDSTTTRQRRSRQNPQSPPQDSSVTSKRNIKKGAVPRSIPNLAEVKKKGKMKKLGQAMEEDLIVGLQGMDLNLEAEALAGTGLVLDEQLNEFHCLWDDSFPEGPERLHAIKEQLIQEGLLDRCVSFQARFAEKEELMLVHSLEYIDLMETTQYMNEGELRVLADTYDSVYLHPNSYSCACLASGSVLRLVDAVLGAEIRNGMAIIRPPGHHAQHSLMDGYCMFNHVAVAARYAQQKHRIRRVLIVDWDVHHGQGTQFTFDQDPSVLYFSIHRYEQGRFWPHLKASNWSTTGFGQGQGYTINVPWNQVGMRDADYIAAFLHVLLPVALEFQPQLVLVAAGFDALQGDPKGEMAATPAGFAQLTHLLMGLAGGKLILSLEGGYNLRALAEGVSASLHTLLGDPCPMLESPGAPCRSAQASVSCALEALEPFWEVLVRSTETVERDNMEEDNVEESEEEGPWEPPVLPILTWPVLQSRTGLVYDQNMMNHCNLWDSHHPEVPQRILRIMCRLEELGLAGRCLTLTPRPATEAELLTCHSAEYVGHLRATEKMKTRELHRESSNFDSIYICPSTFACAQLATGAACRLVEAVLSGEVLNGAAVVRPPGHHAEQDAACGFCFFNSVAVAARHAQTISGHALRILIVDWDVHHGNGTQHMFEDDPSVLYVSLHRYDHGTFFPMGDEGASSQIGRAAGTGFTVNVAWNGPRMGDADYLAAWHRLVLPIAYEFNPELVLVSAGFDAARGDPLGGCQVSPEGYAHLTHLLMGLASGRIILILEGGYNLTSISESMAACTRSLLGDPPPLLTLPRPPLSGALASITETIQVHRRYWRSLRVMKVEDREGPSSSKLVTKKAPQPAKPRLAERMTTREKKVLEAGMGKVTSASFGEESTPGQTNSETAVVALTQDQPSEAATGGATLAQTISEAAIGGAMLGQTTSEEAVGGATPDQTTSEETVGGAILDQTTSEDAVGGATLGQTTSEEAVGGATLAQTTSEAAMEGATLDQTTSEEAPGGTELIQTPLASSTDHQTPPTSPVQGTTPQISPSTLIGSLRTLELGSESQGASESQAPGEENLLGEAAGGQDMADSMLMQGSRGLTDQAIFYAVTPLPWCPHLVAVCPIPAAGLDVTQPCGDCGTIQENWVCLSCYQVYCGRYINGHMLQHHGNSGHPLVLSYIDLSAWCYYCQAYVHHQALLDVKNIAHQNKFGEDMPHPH

HDAC4 = HDAC4 (Homo sapiens, UniProt P56524); assay: cell-free, isoform selective HDAC enzyme assay, HDAC4; assay type: biochemical; details: HDAC Class IIa; read-out: IC50 Inhibition, HDAC4
[1] = molecular target: T2, recombinant human HDAC1 enzyme (Homo sapiens, UniProt Q13547); assay: HDAC1 assay (Fluor-de-Lys fluorescence); assay type: biochemical; details: HDAC Class I; read-out: IC50 Inhibition, HDAC1
T2 construct: made in house; host or cells: mammalian cells
Method: (§1) The final concentration in the assay is 20 μM.
The HDAC1 enzyme is diluted in assay buffer prior to each use from a fresh aliquot of enzyme.
(§2) The final concentration in the assay is 1-2 nM.

human HDAC8 enzyme = molecular target: T3, human HDAC8 enzyme (Homo sapiens, UniProt Q9BY41); assay: HDAC8 assay (Fluor-de-Lys-HDAC8 fluorescence); assay type: biochemical
T3 construct: full length (starting from amino acid 1 to 377+ linker IEGRGS+6 His); made in house; host or cells: E. coli BL21 codon plus
T3 sequence (Q9BY41 1-377): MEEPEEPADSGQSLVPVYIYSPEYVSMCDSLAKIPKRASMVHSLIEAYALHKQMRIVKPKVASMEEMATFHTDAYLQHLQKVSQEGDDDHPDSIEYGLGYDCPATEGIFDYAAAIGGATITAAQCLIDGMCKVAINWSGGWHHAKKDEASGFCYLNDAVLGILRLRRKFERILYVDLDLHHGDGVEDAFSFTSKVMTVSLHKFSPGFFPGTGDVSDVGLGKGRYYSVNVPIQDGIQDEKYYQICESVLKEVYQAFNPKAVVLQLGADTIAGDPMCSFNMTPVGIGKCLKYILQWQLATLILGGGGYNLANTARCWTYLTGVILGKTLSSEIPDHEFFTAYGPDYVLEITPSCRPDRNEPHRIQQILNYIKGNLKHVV
Method: The HDAC8 assay is used to measure inhibitory activity of compounds against the human HDAC8 enzyme. The assay may be performed in 96 well or 384 well microtiter plates by pre-incubating serial dilutions of compounds with a fixed concentration of HDAC8 enzyme and then adding a diacetylated peptide-containing substrate/developer that fluoresces upon deacetylation. The deacetylase reaction is performed at 37° C. for 60 min and stopped by addition of the developer solution.
Reagents of the HDAC Fluorescent Activity Assay are purchased from BioMol Research Laboratories (Plymouth Meeting, Pa.), and include the Fluor-de-Lys™-HDAC8 Substrate/DeveloperII System. The reagents include the fluorescent substrate as a 5 mM stock solution, the and the DeveloperII Concentrate.
TSA is provided as a 10 mM stock solution in 100% DMSO.
The final concentration in the assay is 70 μM.
Test compounds are prepared as a 10×5% DMSO solution in distilled water. The final DMSO concentration in the reaction is 0.5%.
The experiment is performed in a 96-well microplate (Matrix Screenmates white), 50 ul volume, according to the following steps:
1) Add 5 ul of DMSO/compound solution
2) Add 40 ul of HDAC8 enzyme in assay buffer
4) Start the reaction by adding 5 ul of the 1 mM Substrate Solution
5) Incubate 1 h at 37° C. […]
8) Measure the fluorescence at Ex.360 nM and Em.460 nM […]

[2] = molecular target: T4, recombinant human HDAC3 enzyme (HDAC3(DAD) enzyme complex) (Homo sapiens, UniProt O15379); assay: HDAC3 assay (Fluor-de-Lys fluorescence); assay type: biochemical; details: HDAC Class I; read-out: IC50 Inhibition, HDAC3
T4 construct: made in house; host or cells: mammalian cells
Method: as §1, §2

SIRT1 = molecular target: T5, SIRT1 (Homo sapiens, UniProt Q96EB6); assay: cell-free, isoform selective HDAC enzyme assay, SIRT1; assay type: biochemical; details: HDAC Class III; read-out: IC50 Inhibition, SIRT1
T5 sequence (Q96EB6 1-747): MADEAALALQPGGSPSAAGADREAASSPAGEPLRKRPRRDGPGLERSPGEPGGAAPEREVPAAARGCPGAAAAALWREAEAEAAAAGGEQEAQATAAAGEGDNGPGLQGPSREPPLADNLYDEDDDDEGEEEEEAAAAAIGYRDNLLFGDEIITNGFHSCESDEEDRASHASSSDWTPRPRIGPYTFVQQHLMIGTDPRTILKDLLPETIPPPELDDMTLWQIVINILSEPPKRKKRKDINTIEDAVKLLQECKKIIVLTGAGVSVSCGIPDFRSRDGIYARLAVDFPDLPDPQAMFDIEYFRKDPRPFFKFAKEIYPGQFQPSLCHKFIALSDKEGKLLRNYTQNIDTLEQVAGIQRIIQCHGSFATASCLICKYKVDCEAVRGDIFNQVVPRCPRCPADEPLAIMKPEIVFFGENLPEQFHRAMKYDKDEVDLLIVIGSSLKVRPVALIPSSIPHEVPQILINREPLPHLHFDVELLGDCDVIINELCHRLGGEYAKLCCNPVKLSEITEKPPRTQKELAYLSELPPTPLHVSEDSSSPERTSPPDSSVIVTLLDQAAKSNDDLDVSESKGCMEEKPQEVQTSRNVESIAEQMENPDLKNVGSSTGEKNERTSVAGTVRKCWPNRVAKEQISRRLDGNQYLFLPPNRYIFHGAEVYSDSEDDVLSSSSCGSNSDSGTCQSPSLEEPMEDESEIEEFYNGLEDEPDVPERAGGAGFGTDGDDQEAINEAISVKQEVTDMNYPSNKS
Method: The following pharmaceutically active compounds, all of which are taught in the prior art, were assessed for the inhibition of various HDAC subtypes the preceding cell-free, isoform selective HDAC enzyme assays: […]

[3] = tested on: acetylated histones in the brain; details: see WO2003083067; cited from earlier work

Chain of HDAC4 (P56524 whole entry, species assumed, canonical isoform): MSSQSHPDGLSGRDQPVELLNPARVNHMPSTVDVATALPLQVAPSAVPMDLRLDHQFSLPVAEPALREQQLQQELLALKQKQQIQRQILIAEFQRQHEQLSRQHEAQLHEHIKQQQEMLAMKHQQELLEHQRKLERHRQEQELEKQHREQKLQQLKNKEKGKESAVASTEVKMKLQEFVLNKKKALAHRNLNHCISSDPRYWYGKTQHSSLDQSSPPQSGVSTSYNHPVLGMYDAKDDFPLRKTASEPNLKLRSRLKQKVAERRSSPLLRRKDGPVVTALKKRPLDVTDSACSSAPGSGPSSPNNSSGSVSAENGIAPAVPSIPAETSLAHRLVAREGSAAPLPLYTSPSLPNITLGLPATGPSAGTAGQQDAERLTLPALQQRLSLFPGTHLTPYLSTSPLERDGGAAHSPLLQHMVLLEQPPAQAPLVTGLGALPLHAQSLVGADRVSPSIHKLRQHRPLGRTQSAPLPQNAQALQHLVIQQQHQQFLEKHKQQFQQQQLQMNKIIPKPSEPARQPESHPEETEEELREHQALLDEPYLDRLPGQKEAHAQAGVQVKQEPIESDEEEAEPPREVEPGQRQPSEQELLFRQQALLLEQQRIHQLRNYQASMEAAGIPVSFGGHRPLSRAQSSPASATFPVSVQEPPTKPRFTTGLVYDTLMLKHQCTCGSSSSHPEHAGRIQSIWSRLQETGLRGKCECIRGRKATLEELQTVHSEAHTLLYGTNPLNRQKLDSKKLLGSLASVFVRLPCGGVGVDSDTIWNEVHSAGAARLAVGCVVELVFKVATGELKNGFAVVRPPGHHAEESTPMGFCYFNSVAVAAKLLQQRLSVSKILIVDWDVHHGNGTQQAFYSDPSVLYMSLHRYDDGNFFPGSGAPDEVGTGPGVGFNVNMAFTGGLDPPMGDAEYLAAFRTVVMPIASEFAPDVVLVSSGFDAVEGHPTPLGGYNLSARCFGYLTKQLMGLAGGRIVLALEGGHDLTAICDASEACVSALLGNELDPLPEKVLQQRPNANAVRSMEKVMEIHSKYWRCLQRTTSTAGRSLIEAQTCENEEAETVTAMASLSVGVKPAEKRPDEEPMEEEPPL
T2 sequence (Q13547 whole entry): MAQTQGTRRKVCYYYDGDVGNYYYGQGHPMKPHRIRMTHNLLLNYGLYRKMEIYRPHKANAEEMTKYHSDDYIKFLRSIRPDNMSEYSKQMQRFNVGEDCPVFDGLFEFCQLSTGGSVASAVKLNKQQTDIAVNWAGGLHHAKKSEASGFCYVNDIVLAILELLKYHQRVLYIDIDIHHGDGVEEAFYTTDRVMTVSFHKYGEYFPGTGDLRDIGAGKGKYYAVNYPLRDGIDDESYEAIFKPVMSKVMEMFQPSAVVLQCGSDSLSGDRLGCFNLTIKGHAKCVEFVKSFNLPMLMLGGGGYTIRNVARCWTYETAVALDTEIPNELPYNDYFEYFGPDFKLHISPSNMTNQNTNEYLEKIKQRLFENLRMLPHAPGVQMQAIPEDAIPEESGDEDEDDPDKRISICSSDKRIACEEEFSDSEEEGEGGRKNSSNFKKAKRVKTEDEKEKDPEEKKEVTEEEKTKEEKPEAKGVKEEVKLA
T4 sequence (O15379 whole entry): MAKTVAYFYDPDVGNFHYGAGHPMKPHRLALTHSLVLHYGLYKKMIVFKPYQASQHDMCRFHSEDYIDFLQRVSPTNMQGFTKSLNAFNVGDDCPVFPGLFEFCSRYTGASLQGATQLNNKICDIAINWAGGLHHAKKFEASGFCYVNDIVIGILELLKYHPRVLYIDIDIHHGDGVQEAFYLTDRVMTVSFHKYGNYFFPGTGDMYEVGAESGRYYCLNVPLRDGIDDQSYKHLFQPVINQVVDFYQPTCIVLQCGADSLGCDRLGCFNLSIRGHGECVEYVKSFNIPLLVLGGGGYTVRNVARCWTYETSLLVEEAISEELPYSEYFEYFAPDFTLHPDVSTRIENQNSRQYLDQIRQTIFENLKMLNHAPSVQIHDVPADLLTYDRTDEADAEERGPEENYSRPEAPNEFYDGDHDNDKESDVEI
T4 sequence (Q9Y618 389-480 partner limits assumed): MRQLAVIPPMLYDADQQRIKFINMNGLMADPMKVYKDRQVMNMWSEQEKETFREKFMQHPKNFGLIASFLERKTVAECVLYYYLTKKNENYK

Row | IC50 (HDAC6) [µM] | IC50 (HDAC4) [µM] | IC50 [1] [µM] | potency at HDAC 8 relative to HDAC1 and HDAC3 (human HDAC8 enzyme; HDAC 8 potency similar to HDAC1 and HDAC3) [fold] | IC50 (human HDAC8 enzyme; HDAC Class I, read-out: IC50 Inhibition, HDAC8) [µM] | IC50 [2] [µM] | IC50 (HDAC6; HDAC Class IIb, read-out: IC50 Inhibition, HDAC6) [µM] | IC50 (SIRT1) [µM] | Compound | accumulation of acetylated histones in the brain [3] | crossing of the blood-brain barrier [3]
1 | > 5000 | > 25 |  |  |  |  |  |  | CCCC(CCC)C(=O)O [Valproic acid, 2-propylpentanoic acid] |  | 
2 |  | > 50 | 10 | ≤ 5 | 31 | 36 | > 50 | > 50 | CCCCCC[C@@H](CCC)C(=O)O [Arundic acid, (2R)-2-propyloctanoic acid] |  | 
3 |  |  |  |  |  |  |  |  | O=C(CCCCCCC(=O)Nc1ccccc1)NO [SAHA, suberoylanilide hydroxamic acid] | cause accumulation of acetylated histones in the brain | cross the blood-brain barrier
